Values after ≈ are worked out from the molar mass of the structure shown.

Common to all, as to format: functional, cell-based
In assay [1] the test system is THP-1. The experiment in a line: Cytotoxicity against human THP1 cells after 24 hrs by MTT assay. Conditions: THP-1, 24 h. Background: Formazan colour is commonly taken as a measure of viable cells.
Assay [2] deals with U-937. Description: Cytotoxicity against human U937 cells after 24 hrs by MTT assay. The following applies: U-937, 24 h.
Assay [3] concerns COLO 205. The experiment in a line: Cytotoxicity against human COLO205 cells after 24 hrs by MTT assay. Conditions: COLO 205, 24 h.
Assay [4] has as its system HeLa. The experiment in a line: Cytotoxicity against human HeLa cells after 24 hrs by MTT assay.

In general, IC50 refers to the concentration needed to halve the response being measured. A higher IC50 goes with weaker potency. As to `CCCCCCCCCCn1cc(-c2nc3ccccc3cc2CCC)nn1`, the IC50 in assay [1] is over 100 µg/mL; in assay [2], 26.6 µg/mL (≈ 70.2 µM); in assay [3], over 100 µg/mL; in assay [4], over 100 µg/mL.

For the compound `CCCCCc1cc2ccccc2nc1-c1cn(-c2ccc(F)cc2)nn1`, the IC50 in assay [1] is over 100 µg/mL; in assay [2], 67.5 µg/mL (≈ 187 µM); in assay [3] it was over 100 µg/mL; in assay [4] it was over 100 µg/mL.

As to `CCCCc1cc2ccccc2nc1-c1cn(-c2ccc(F)cc2)nn1`, the IC50 in assay [1] is 78.3 µg/mL (≈ 226 µM); in assay [2], 66.2 µg/mL (≈ 191 µM); in assay [3], over 100 µg/mL; in assay [4], over 100 µg/mL.

Consider `CCCCCCCCCCn1cc(-c2nc3ccccc3cc2CCCCC)nn1`, for which the IC50 is 88 µg/mL (≈ 216 µM) in assay [1], 18.2 µg/mL (≈ 44.7 µM) in assay [2], over 100 µg/mL in assay [3] and over 100 µg/mL in assay [4].

Consider `CCCCCCCCCCn1cc(-c2nc3ccccc3cc2C)nn1`, for which the IC50 in assay [1] is over 100 µg/mL; in assay [2], over 100 µg/mL; in assay [3], 44.5 µg/mL (≈ 127 µM); in assay [4] it was 28.2 µg/mL (≈ 80.4 µM).

Consider `O=c1[nH]cc(F)c(=O)[nH]1` [FLUOROURACIL], for which the IC50 in assay [1] was 0.54 µg/mL (≈ 4.15 µM); in assay [2] it was 0.87 µg/mL (≈ 6.69 µM); in assay [3] it was 4.03 µg/mL (≈ 31 µM); in assay [4] it was 1.28 µg/mL (≈ 9.84 µM).

Take `CCc1cc2ccccc2nc1-c1cn(CCC(F)(F)C(F)(F)C(F)(F)C(F)(F)C(F)(F)C(F)(F)C(F)(F)C(F)(F)F)nn1`: the IC50 is over 100 µg/mL in assay [1], 55.9 µg/mL (≈ 83.4 µM) in assay [2], 95.2 µg/mL (≈ 142 µM) in assay [3] and over 100 µg/mL in assay [4].

As for `CCCCCc1cc2ccccc2nc1-c1cn(CCC(F)(F)C(F)(F)C(F)(F)C(F)(F)C(F)(F)C(F)(F)C(F)(F)C(F)(F)F)nn1`, the IC50 in assay [1], in assay [2], in assay [3] and in assay [4] was over 100 µg/mL each time.

With `CCCc1cc2ccccc2nc1-c1cn(CCC(F)(F)C(F)(F)C(F)(F)C(F)(F)C(F)(F)C(F)(F)C(F)(F)C(F)(F)F)nn1`, the IC50 is over 100 µg/mL in assay [1], over 100 µg/mL in assay [2], over 100 µg/mL in assay [3] and 37.8 µg/mL (≈ 55.2 µM) in assay [4].

Turning to `CCc1cc2ccccc2nc1-c1cn(-c2ccc(F)cc2)nn1`, the IC50 in assay [1], in assay [2], in assay [3] and in assay [4] was over 100 µg/mL throughout.

Take `Cc1cc2ccccc2nc1-c1cn(-c2ccc(F)cc2)nn1`: the IC50 is over 100 µg/mL in assay [1], 65.6 µg/mL (≈ 215 µM) in assay [2], over 100 µg/mL in assay [3] and over 100 µg/mL in assay [4].

On to `CCCCc1cc2ccccc2nc1-c1cn(CCC(F)(F)C(F)(F)C(F)(F)C(F)(F)C(F)(F)C(F)(F)C(F)(F)C(F)(F)F)nn1`, for which the IC50 in assay [1] is over 100 µg/mL; in assay [2], 59.1 µg/mL (≈ 84.6 µM); in assay [3] it was over 100 µg/mL; in assay [4], 32.8 µg/mL (≈ 47 µM).

As for `CCCCCCCCCCn1cc(-c2nc3ccccc3cc2CCCC)nn1`, the concentration for half-maximal inhibition (IC50) in assay [1] is over 100 µg/mL; in assay [2], 25.2 µg/mL (≈ 64.3 µM); in assay [3] it was over 100 µg/mL; in assay [4], over 100 µg/mL.

In the case of `CCCCCCCCCCn1cc(-c2nc3ccccc3cc2CC)nn1`, the IC50 in assay [1] was 34.3 µg/mL (≈ 94 µM); in assay [2], 12.7 µg/mL (≈ 34.9 µM); in assay [3], over 100 µg/mL; in assay [4], over 100 µg/mL.

Consider `CCCc1cc2ccccc2nc1-c1cn(-c2ccc(F)cc2)nn1`, for which the IC50 in assay [1] is over 100 µg/mL; in assay [2] it was 67.4 µg/mL (≈ 203 µM); in assay [3], over 100 µg/mL; in assay [4], over 100 µg/mL.

Consider `Cc1cc2ccccc2nc1-c1cn(CCC(F)(F)C(F)(F)C(F)(F)C(F)(F)C(F)(F)C(F)(F)C(F)(F)C(F)(F)F)nn1`, for which the IC50 is over 100 µg/mL in assay [1], 56.6 µg/mL (≈ 86.2 µM) in assay [2], 75.8 µg/mL (≈ 116 µM) in assay [3] and over 100 µg/mL in assay [4].

The values are drawn from ChEMBL document CHEMBL2331112, “Synthesis of novel 2-alkyl triazole-3-alkyl substituted quinoline derivatives and their cytotoxic activity” (Bioorg Med Chem Lett, 2013).
